Results taken from US20140196172A1, “Organelle Targeting Nanocarriers” (Her Majesty the Queen in Right of Canada, as Repre sented …, priority 2011, published 2014).

Experiments:
[1] = test system: mitochondria of triticale mesophyll protoplasts; assay: Protoplast transformation with gfp reporter, confocal microscopy; type: cell-based; conditions: pWMaadA16GFP plasmid, 24 h
Protocol: (§1) The ten non-labelled oTPs listed in Tables 3 and 4 were tested for their capability to deliver biologically active DNA to chloroplasts or mitochondria using an oTP-GFP reporter construct transfection assay. oTPs are mixed with a double stranded (ds) DNA construct encoding Aequorea victoria green fluorescent protein (GFP) to form a complex. The plasmid-peptide nanocomplexes formed are incubated with triticale mesophyll protoplasts, microspores, or MDCK, Caco-2, F1112 or MG cells. Detection of a fluorescent signal by confocal microscopy and/or photometric cell imaging would indicate that the dsDNA had been transported into organelles and that transient expression of GFP had occurred. In addition, gene expression can be measured using quantitative real-time PCR to determine gfp mRNA abundance.
Wheat mitochondrial aadA16GFP reporter plasmid (pWMaadA16GFP, FIG. 11) is a 4587 base pair wheat specific mitochondrial transformation vector, which targets insertions into the fourth repeat region between the trnfM and rm18 gene cluster which is repeated three times in the Triticum aestivum mitochondrial genome. The insertion site is in the Triticum aestivum mitochondrial genome at nucleotides 300805-300878 and 300880-302834 (GenBank accession No. AP008982.1). A multiple cloning site is introduced following the tmfM target insertion sequence. […]

Caco-2 cells = assay: Caco-2 cell transformation with gfp reporter, photometric cell imaging; type: cell-based, human; conditions: for Fluorescence observed in cells upon transfection / Expression of GFP in mitochondria: Caco-2, mitochondrial gfp-reporter construct; for Expression of GFP in mitochondria: photometric cell imaging; for gfp expression, Photometric Cell Imaging (average counts/sec) Caco-2: pWMaadA16GFP 5 μg + peptide 500 μg, measured at 40 h
Protocol: (§2) Uptake of labeled peptides by cells is quantified using a photometric detector/cell-imaging system (PTI). An excitation scan is run to determine if uptake has occurred as indicated by peaks at the appropriate wavelengths and if the amount changes in a dose-dependent manner compared to unlabeled cells. A time-based scan is then performed at the optimal excitation and emission wavelength to quantify total uptake, using about 20 cells/view/replicate.
as §1
(§3) Wheat mitochondrial aadA16GFP reporter plasmid (pWMaadA16GFP, FIG. 11) is a 4587 base pair wheat specific mitochondrial transformation vector, which targets insertions into the fourth repeat region between the trnfM and rm18 gene cluster which is repeated three times in the Triticum aestivum mitochondrial genome. The insertion site is in the Triticum aestivum mitochondrial genome at nucleotides 300805-300878 and 300880-302834 (GenBank accession No. AP008982.1). A multiple cloning site is introduced following the tmfM target insertion sequence. The selection marker gene is an organelle codon specific aad-gfp fusion gene, which facilitates a dual selection method of spectinomycin resistance through an aadA derivative and visual detection by GFP fluorescence (GenBank accession No. ABX39486; Khan and Maliga, Nat. Biotechnol. (1999 September) 17(9): 910-5). The selection marker gene is driven by the Triticum aestivum mitochondrial atpA gene promoter (GenBank accession No. X54387.1). The aad-gfp fusion gene is terminated with the TpsbA terminator sequence derived from the Triticum aestivum mitochondrial genome at nucleotides 62871-62565 (GenBank accession No. AP008982.1).
(§4) The dsDNA construct (pWMaadA16GFP. 100 μl of the stock solution, 5 μg) is combined with mTP1 (SEQ ID NO: 1) or mTP4 (SEQ ID NO: 4) (100 μl of the unlabelled stock, 500 μg) and incubated for 15 minutes at 37° C. An 800 μl aliquot of DMEM is added to the mixture and 100 μl of this mixture is then added to each cell monolayer (prepared as described in Example 2) that has 500 μl complete media. The cells are incubated at 37° C. in a humidified atmosphere containing 5% CO2 for 24 h to 72 hr. The uptake and expression of the GFP reporter is measured at 40 h using a photometric detector/cell-imaging system (PTI) as described in Example 2. The cells are also imaged using confocal microscopy as described in Example 2 using MitoTracker® Orange staining to visualize mitochondria.

F1112 cells = assay: F1112 cell transformation with gfp reporter, photometric cell imaging; type: cell-based, bovine; conditions: for Fluorescence observed in cells upon transfection / Expression of GFP in mitochondria: F1112, mitochondrial gfp-reporter construct; for Expression of GFP in mitochondria: photometric cell imaging; for gfp expression, Photometric Cell Imaging (average counts/sec) F1112: pWMaadA16GFP 5 μg + peptide 500 μg, measured at 40 h
Protocol: as §2, §1, §3, §4

MG cells = assay: MG cell transformation with gfp reporter, photometric cell imaging; type: cell-based, bovine; conditions: for Fluorescence observed in cells upon transfection / Expression of GFP in mitochondria: MG, mitochondrial gfp-reporter construct; for Expression of GFP in mitochondria: photometric cell imaging; for gfp expression, Photometric Cell Imaging (average counts/sec) MG: pWMaadA16GFP 5 μg + peptide 500 μg, measured at 40 h
Protocol: as §2, §1, §3, §4

| Sequence | Transfection of mitochondria (GFP fluorescence) [1] | Fluorescence observed in cells upon transfection (Caco-2 cells) | Expression of GFP in mitochondria (Caco-2 cells) | gfp expression, Photometric Cell Imaging (average counts/sec) Caco-2 (Caco-2 cells) [counts/sec] | Fluorescence observed in cells upon transfection (F1112 cells) | Expression of GFP in mitochondria (F1112 cells) | gfp expression, Photometric Cell Imaging (average counts/sec) F1112 (F1112 cells) [counts/sec] | Fluorescence observed in cells upon transfection (MG cells) | Expression of GFP in mitochondria (MG cells) | gfp expression, Photometric Cell Imaging (average counts/sec) MG (MG cells) [counts/sec] |
| --- | --- | --- | --- | --- | --- | --- | --- | --- | --- | --- |
| MAAWMRSLFSPLKKLWIRMH (Zea mays) [mTP2] | can mediate the transfection of mitochondria |  |  |  |  |  |  |  |  |  |
| MFSYLPRYPLRAASARALVRATRPSYRSALLRYQ (listed as Triticum aestivum) [mTP1] |  | fluorescence was observed in all cells | detected | 2000000 | fluorescence was observed in all cells | detected | 1900000 | fluorescence was observed in all cells | detected | 1900000 |
| MWWRRSRTNSLRYT (listed as Arabidopsis thaliana) [mTP4] | can mediate the transfection of mitochondria | no fluorescence was observed | detected | 570000 | no fluorescence was observed | detected | 650000 | no fluorescence was observed | detected | 650000 |
